Experimental findings from ChEMBL document CHEMBL1143953, “Novel 2-phenylquinolin-7-yl-derived imidazo[1,5-a]pyrazines as potent insulin-like growth factor-I receptor (IGF-IR) inhibitors” (Bioorg Med Chem, 2008) are described below.

Assay [1] has as its target Insulin-like growth factor 1 receptor (Homo sapiens, UniProt P08069).
Description: Inhibition of human recombinant full length IGF1R expressed in mouse 3T3 cells
The target of assay [2] is Cytochrome P450 3A4 (Homo sapiens, UniProt P08684). Description: Inhibition of CYP3A4. Type of assay: ADME.
Sequence of Cytochrome P450 3A4 (P08684 whole entry): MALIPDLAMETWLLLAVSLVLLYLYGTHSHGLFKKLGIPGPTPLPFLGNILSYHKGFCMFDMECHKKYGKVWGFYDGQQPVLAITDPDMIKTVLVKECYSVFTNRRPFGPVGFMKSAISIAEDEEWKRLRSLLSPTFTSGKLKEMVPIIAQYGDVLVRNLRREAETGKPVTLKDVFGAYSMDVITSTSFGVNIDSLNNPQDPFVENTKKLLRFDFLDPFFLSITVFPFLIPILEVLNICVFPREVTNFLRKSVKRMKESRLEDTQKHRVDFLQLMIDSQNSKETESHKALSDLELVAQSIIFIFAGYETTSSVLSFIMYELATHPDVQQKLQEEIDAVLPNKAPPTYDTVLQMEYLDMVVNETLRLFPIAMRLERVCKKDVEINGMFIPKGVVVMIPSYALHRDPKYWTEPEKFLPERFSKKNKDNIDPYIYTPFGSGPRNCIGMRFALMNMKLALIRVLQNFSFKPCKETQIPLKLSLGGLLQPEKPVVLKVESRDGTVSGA

Sequence of Insulin-like growth factor 1 receptor (P08069 31-736 limits assumed): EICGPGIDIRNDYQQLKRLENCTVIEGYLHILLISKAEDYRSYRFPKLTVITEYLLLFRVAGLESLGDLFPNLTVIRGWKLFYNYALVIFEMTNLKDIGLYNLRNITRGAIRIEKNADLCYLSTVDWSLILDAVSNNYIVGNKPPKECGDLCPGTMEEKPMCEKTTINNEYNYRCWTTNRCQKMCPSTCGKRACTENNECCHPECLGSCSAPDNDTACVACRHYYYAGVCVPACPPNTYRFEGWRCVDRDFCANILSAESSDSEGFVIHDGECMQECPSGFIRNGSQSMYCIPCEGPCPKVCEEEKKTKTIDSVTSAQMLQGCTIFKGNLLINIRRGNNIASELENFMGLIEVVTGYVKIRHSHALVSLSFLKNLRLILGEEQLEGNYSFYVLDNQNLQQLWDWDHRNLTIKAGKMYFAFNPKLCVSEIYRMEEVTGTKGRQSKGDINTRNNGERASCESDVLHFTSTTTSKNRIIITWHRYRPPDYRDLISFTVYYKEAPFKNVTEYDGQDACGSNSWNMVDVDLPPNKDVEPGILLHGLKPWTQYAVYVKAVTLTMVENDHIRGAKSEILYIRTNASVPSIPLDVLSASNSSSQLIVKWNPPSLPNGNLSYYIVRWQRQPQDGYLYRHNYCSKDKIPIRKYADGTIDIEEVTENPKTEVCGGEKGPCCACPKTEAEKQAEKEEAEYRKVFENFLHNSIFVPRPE
Sequence of Insulin-like growth factor 1 receptor (P08069 741-1367 limits assumed): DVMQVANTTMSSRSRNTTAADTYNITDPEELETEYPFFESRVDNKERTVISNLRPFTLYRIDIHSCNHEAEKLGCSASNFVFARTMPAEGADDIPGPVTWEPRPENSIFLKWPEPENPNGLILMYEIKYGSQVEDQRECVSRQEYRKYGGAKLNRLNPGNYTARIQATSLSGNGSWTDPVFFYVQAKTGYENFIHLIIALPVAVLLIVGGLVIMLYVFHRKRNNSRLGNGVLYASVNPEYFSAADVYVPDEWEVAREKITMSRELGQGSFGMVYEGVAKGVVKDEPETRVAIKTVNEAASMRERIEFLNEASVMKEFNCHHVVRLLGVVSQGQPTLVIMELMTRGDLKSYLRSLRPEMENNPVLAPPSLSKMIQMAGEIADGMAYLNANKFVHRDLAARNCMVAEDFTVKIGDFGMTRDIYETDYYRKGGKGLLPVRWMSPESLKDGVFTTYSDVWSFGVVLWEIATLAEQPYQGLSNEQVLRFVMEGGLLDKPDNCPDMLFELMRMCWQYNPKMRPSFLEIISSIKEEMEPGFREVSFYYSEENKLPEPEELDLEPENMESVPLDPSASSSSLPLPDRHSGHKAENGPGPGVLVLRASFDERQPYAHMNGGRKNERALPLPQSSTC

With `Nc1nccn2c(C3CCC3)nc(-c3ccc4cccnc4c3)c12`, the IC50 in assay [1] was > 10 µM.
The compound `Nc1nccn2c1c(-c1ccc3ccc(-c4ccccc4)nc3c1)nc2[C@H]1C[C@@H](N2CCSCC2)C1` showed a 50% inhibitory concentration (IC50) in assay [2] of 7.8 µM.
Still for that read-out and setting: under `Nc1nccn2c(C3CCC3)nc(-c3ccc4ccc(-c5ccccc5)nc4c3)c12` stands 3.4 µM.
For the compound `CN(C)C[C@H]1C[C@H](c2nc(-c3ccc4ccc(-c5ccccc5)nc4c3)c3c(N)nccn32)C1`, in assay [2], the IC50 is 15 µM.
Same read-out and setting: the value for `Nc1nccn2c1c(-c1ccc3ccc(-c4ccccc4)nc3c1)nc2[C@H]1C[C@@H](N2CCOCC2)C1` was 12 µM; that for `Nc1nccn2c1c(-c1ccc3ccc(-c4ccccc4)nc3c1)nc2[C@H]1C[C@@H](N2CCC2)C1` was > 20 µM; that for `Nc1nccn2c1c(-c1ccc3ccc(-c4ccccc4)nc3c1)nc2[C@H]1C[C@@H](CN2CCOCC2)C1` was > 20 µM.
